Results reported in ChEMBL document CHEMBL1128849, “Synthesis and antibacterial activity of men 10700, a new penem antibiotic” (1995).
Values after ≈ are worked out from the molar mass of the structure shown.

Legend:
Proteus mirabilis = assay: In vitro antibacterial activity against Proteus mirabilis; assay type: functional
Streptococcus pneumoniae = assay: In vitro antibacterial activity against Streptococcus pneumoniae; assay type: functional
Escherichia coli [1] = assay: In vitro antibacterial activity against Escherichia. coli SHV; assay type: functional
Providencia rettgeri = assay: In vitro antibacterial activity against Providencia rettgerii; assay type: functional
Aeromonas sp. = assay: In vitro antibacterial activity against Aeromonas species.; assay type: functional
[2] = tested on: Stenotrophomonas maltophilia; assay: In vitro antibacterial activity against Xanthomonas maltophilia; assay type: functional
Escherichia coli [3] = assay: In vitro antibacterial activity against Escherichia. coli L; assay type: functional
Staphylococcus aureus [4] = assay: In vitro antibacterial activity against Staphylococcus aureus MR; assay type: functional
Streptococcus pyogenes = assay: In vitro antibacterial activity against Streptococcus pyogenes A; assay type: functional
Pseudomonas aeruginosa [5] = assay: In vitro antibacterial activity against Pseudomonas aeruginosa VR5; assay type: functional
Enterococcus faecalis [6] = assay: In vitro antibacterial activity against Enterococcus faecalis ATCC 29212; assay type: functional
Klebsiella aerogenes = assay: In vitro antibacterial activity against Enterobacter aerogenes; assay type: functional
Escherichia coli [7] = assay: In vitro antibacterial activity against Escherichia. coli TEM2; assay type: functional
Proteus vulgaris = assay: In vitro antibacterial activity against Proteus vulgaris; assay type: functional
Citrobacter freundii = assay: In vitro antibacterial activity against Citrobacter freundii; assay type: functional
Escherichia coli [8] = assay: In vitro antibacterial activity against Escherichia. coli ATCC 25922; assay type: functional
Morganella morganii = assay: In vitro antibacterial activity against Morganella morganii; assay type: functional
Klebsiella pneumoniae = assay: In vitro antibacterial activity against Klebsiella pneumoniae; assay type: functional
Staphylococcus aureus [9] = assay: In vitro antibacterial activity against Staphylococcus aureus ATCC 25923; assay type: functional
Staphylococcus aureus [10] = assay: In vitro antibacterial activity against Staphylococcus aureus MR13; assay type: functional
[11] = tested on: Staphylococcus epidermidis; assay: In vitro antibacterial activity against Staphylococcus epidermidis; assay type: functional
Streptococcus agalactiae = assay: In vitro antibacterial activity against Streptococcus agalactiae B; assay type: functional
Moraxella catarrhalis = assay: In vitro antibacterial activity against Branhamella catarrhalis; assay type: functional
Staphylococcus aureus [12] = assay: In vitro antibacterial activity against Staphylococcus aureus ATCC 29213; assay type: functional
Escherichia coli [13] = assay: In vitro antibacterial activity against Escherichia coli; assay type: functional
Listeria monocytogenes = assay: In vitro antibacterial activity against Listeria monocytogenes; assay type: functional
Staphylococcus aureus [14] = assay: In vitro antibacterial activity against Staphylococcus aureus MS; assay type: functional
[15] = tested on: Acinetobacter calcoaceticus subsp. anitratus; assay: In vitro antibacterial activity against Acinetobacter anitratus; assay type: functional
Staphylococcus aureus [16] = assay: In vitro antibacterial activity against Staphylococcus aureus MR09; assay type: functional
Providencia stuartii = assay: In vitro antibacterial activity against Providencia stuartii; assay type: functional
Yersinia sp. = assay: In vitro antibacterial activity against Yersinia species; assay type: functional, yersinia spp; settings: Yersinia sp. (in: enterobacteria)
Pseudomonas aeruginosa [17] = assay: In vitro antibacterial activity against Pseudomonas aeruginosa G242; assay type: functional
Pseudomonas aeruginosa [18] = assay: In vitro antibacterial activity against Pseudomonas aeruginosa ATCC 27853; assay type: functional
Pseudomonas aeruginosa [19] = assay: In vitro antibacterial activity against Pseudomonas aeruginosa; assay type: functional
Escherichia coli [20] = assay: In vitro antibacterial activity against Escherichia. coli TEM1; assay type: functional
Haemophilus influenzae = assay: In vitro antibacterial activity against Haemophilus influenzae; assay type: functional
Enterococcus faecalis [21] = assay: In vitro antibacterial activity against Enterococcus faecalis; assay type: functional
Enterococcus faecium = assay: In vitro antibacterial activity against Enterococcus faecium; assay type: functional
Bacteroides fragilis = assay: In vitro antibacterial activity against Bacteroides fragilis; assay type: functional
Clostridium perfringens = assay: In vitro antibacterial activity against Clostridium perfringens; assay type: functional
Pseudomonas aeruginosa [22] = assay: microbe, parasite or virus in culture; settings: ATCC 27853
Escherichia coli [23] = assay: In vitro antibacterial activity against Escherichia. coli DC2; assay type: functional

CC1(C)S[C@@H]2[C@H](NC(=O)[C@H](N)c3ccccc3)C(=O)N2[C@H]1C(=O)O.CC1(C)[C@H](C(=O)O)N2C(=O)C[C@H]2S1(=O)=O gave an MIC90 (Proteus mirabilis) of 32 µg/mL, an MIC90 (Streptococcus pneumoniae) of 0.03 µg/mL and an MIC (Escherichia coli [1]) of over 32 µg/mL. For the same compound, the MIC90 (Providencia rettgeri) was 32 µg/mL, the MIC90 (Aeromonas sp.) was over 32 µg/mL and the MIC90 [2] was over 64 µg/mL. The MIC (Escherichia coli [3]) was 8 µg/mL, the MIC90 (Staphylococcus aureus [4]) was 32 µg/mL and the MIC90 (Streptococcus pyogenes) was 0.03 µg/mL. For the same compound, the MIC (Pseudomonas aeruginosa [5]) was 0.12 µg/mL, the MIC (Enterococcus faecalis [6]) was 1 µg/mL and the MIC90 (Klebsiella aerogenes) was over 64 µg/mL. For the same compound, the MIC (Escherichia coli [7]) was 8 µg/mL, the MIC90 (Proteus vulgaris) was 8 µg/mL and the MIC90 (Citrobacter freundii) was over 64 µg/mL. It also gave an MIC (Escherichia coli [8]) of 8 µg/mL, an MIC90 (Morganella morganii) of 16 µg/mL and an MIC90 (Klebsiella pneumoniae) of 16 µg/mL. It also gave an MIC (Staphylococcus aureus [9]) of 0.03 µg/mL, an MIC (Staphylococcus aureus [10]) of 0.12 µg/mL and an MIC90 [11] of 4 µg/mL. It also gave an MIC90 (Streptococcus agalactiae) of 0.06 µg/mL, an MIC90 (Moraxella catarrhalis) of 0.5 µg/mL and an MIC (Staphylococcus aureus [12]) of 0.25 µg/mL. For the same compound, the MIC90 (Escherichia coli [13]) was 8 µg/mL, the MIC90 (Listeria monocytogenes) was 0.5 µg/mL and the MIC90 (Staphylococcus aureus [14]) was 1 µg/mL. For the same compound, the MIC90 [15] was 32 µg/mL, the MIC (Staphylococcus aureus [16]) was 4 µg/mL and the MIC90 (Providencia stuartii) was 64 µg/mL. It also gave an MIC90 (Yersinia sp.) of 32 µg/mL, an MIC (Pseudomonas aeruginosa [17]) of over 32 µg/mL and an MIC (Pseudomonas aeruginosa [18]) of 32 µg/mL. For the same compound, the MIC90 (Pseudomonas aeruginosa [19]) was over 64 µg/mL, the MIC (Escherichia coli [20]) was over 32 µg/mL and the MIC90 (Haemophilus influenzae) was 1 µg/mL. For the same compound, the MIC90 (Enterococcus faecalis [21]) was 2 µg/mL, the MIC90 (Enterococcus faecium) was over 64 µg/mL and the MIC90 (Bacteroides fragilis) was 4 µg/mL. For the same compound, the MIC90 (Clostridium perfringens) was 0.12 µg/mL.
For CC1(C)S[C@@H]2[C@H](NC(=O)[C@H](N)c3ccc(O)cc3)C(=O)N2[C@H]1C(=O)O [AMOXICILLIN], the MIC90 (Streptococcus pneumoniae) was 0.015 µg/mL (≈ 0.041 µM), the MIC90 (Aeromonas sp.) was over 32 µg/mL and the MIC90 (Staphylococcus aureus [4]) was over 32 µg/mL. For the same compound, the MIC90 (Streptococcus pyogenes) was 0.015 µg/mL (≈ 0.041 µM), the MIC90 (Klebsiella pneumoniae) was over 64 µg/mL and the MIC90 [11] was 4 µg/mL (≈ 10.9 µM). The MIC90 (Streptococcus agalactiae) was 0.06 µg/mL (≈ 0.164 µM), the MIC90 (Moraxella catarrhalis) was 2 µg/mL (≈ 5.47 µM) and the MIC90 (Listeria monocytogenes) was 0.5 µg/mL (≈ 1.37 µM). It also gave an MIC90 (Staphylococcus aureus [14]) of 1 µg/mL (≈ 2.74 µM), an MIC90 (Yersinia sp.) of over 64 µg/mL and an MIC90 (Haemophilus influenzae) of 1 µg/mL (≈ 2.74 µM). It also gave an MIC90 (Enterococcus faecalis [21]) of 0.5 µg/mL (≈ 1.37 µM), an MIC90 (Enterococcus faecium) of 32 µg/mL (≈ 87.6 µM) and an MIC90 (Bacteroides fragilis) of 32 µg/mL (≈ 87.6 µM). The MIC90 (Clostridium perfringens) was 0.06 µg/mL (≈ 0.164 µM).
C[C@@H](O)[C@H]1C(=O)N2C(C(=O)O)=C(SCCNC=N)C[C@H]12 [IMIPENEM ANHYDROUS] showed an MIC90 (Proteus mirabilis) of 2 µg/mL (≈ 6.68 µM), an MIC90 (Streptococcus pneumoniae) of 0.06 µg/mL (≈ 0.2 µM) and an MIC (Escherichia coli [1]) of 0.25 µg/mL (≈ 0.835 µM). It also gave an MIC90 (Providencia rettgeri) of 1 µg/mL (≈ 3.34 µM), an MIC90 (Aeromonas sp.) of 0.06 µg/mL (≈ 0.2 µM) and an MIC90 [2] of over 64 µg/mL. It also gave an MIC (Pseudomonas aeruginosa [22]) of 1 µg/mL (≈ 3.34 µM), an MIC (Escherichia coli [3]) of 0.12 µg/mL (≈ 0.401 µM) and an MIC90 (Staphylococcus aureus [4]) of over 32 µg/mL. For the same compound, the MIC90 (Streptococcus pyogenes) was 0.06 µg/mL (≈ 0.2 µM), the MIC (Pseudomonas aeruginosa [5]) was 0.25 µg/mL (≈ 0.835 µM) and the MIC (Enterococcus faecalis [6]) was 0.5 µg/mL (≈ 1.67 µM). It also gave an MIC90 (Klebsiella aerogenes) of 4 µg/mL (≈ 13.4 µM), an MIC (Escherichia coli [7]) of 0.25 µg/mL (≈ 0.835 µM) and an MIC90 (Proteus vulgaris) of 2 µg/mL (≈ 6.68 µM). The MIC90 (Citrobacter freundii) was 0.5 µg/mL (≈ 1.67 µM), the MIC (Escherichia coli [8]) was 0.12 µg/mL (≈ 0.401 µM) and the MIC90 (Morganella morganii) was 2 µg/mL (≈ 6.68 µM). The MIC (Escherichia coli [23]) was 0.5 µg/mL (≈ 1.67 µM), the MIC90 (Klebsiella pneumoniae) was 0.25 µg/mL (≈ 0.835 µM) and the MIC (Staphylococcus aureus [9]) was under 0.03 µg/mL. It also gave an MIC (Staphylococcus aureus [10]) of 0.12 µg/mL (≈ 0.401 µM), an MIC90 [11] of 0.25 µg/mL (≈ 0.835 µM) and an MIC90 (Streptococcus agalactiae) of 0.015 µg/mL (≈ 0.0501 µM). For the same compound, the MIC90 (Moraxella catarrhalis) was 0.03 µg/mL (≈ 0.1 µM), the MIC (Staphylococcus aureus [12]) was under 0.03 µg/mL and the MIC90 (Escherichia coli [13]) was 0.12 µg/mL (≈ 0.401 µM). For the same compound, the MIC90 (Listeria monocytogenes) was 0.03 µg/mL (≈ 0.1 µM), the MIC90 (Staphylococcus aureus [14]) was 0.015 µg/mL (≈ 0.0501 µM) and the MIC90 [15] was 0.5 µg/mL (≈ 1.67 µM). For the same compound, the MIC (Staphylococcus aureus [16]) was 0.25 µg/mL (≈ 0.835 µM), the MIC90 (Providencia stuartii) was 2 µg/mL (≈ 6.68 µM) and the MIC90 (Yersinia sp.) was 0.25 µg/mL (≈ 0.835 µM). It also gave an MIC (Pseudomonas aeruginosa [17]) of 0.25 µg/mL (≈ 0.835 µM), an MIC90 (Pseudomonas aeruginosa [19]) of 8 µg/mL (≈ 26.7 µM) and an MIC (Escherichia coli [20]) of 0.25 µg/mL (≈ 0.835 µM). For the same compound, the MIC90 (Haemophilus influenzae) was 1 µg/mL (≈ 3.34 µM), the MIC90 (Enterococcus faecalis [21]) was 2 µg/mL (≈ 6.68 µM) and the MIC90 (Enterococcus faecium) was over 64 µg/mL. The MIC90 (Bacteroides fragilis) was 0.25 µg/mL (≈ 0.835 µM) and the MIC90 (Clostridium perfringens) was 0.03 µg/mL (≈ 0.1 µM).
C[C@@H](O)[C@H]1C(=O)N2C(C(=O)O)=C(COC(N)=O)S[C@H]12 [RITIPENEM] showed an MIC (Escherichia coli [1]) of 1 µg/mL (≈ 3.47 µM), an MIC (Escherichia coli [3]) of 1 µg/mL (≈ 3.47 µM) and an MIC (Pseudomonas aeruginosa [5]) of 0.5 µg/mL (≈ 1.73 µM). The MIC (Enterococcus faecalis [6]) was 2 µg/mL (≈ 6.94 µM), the MIC (Escherichia coli [7]) was 1 µg/mL (≈ 3.47 µM) and the MIC (Escherichia coli [8]) was 0.5 µg/mL (≈ 1.73 µM). It also gave an MIC (Escherichia coli [23]) of 1 µg/mL (≈ 3.47 µM), an MIC (Staphylococcus aureus [9]) of 0.06 µg/mL (≈ 0.208 µM) and an MIC (Staphylococcus aureus [10]) of 0.12 µg/mL (≈ 0.416 µM). For the same compound, the MIC (Staphylococcus aureus [12]) was 0.12 µg/mL (≈ 0.416 µM), the MIC (Staphylococcus aureus [16]) was 2 µg/mL (≈ 6.94 µM) and the MIC (Pseudomonas aeruginosa [17]) was 1 µg/mL (≈ 3.47 µM). For the same compound, the MIC (Pseudomonas aeruginosa [18]) was over 32 µg/mL and the MIC (Escherichia coli [20]) was 1 µg/mL (≈ 3.47 µM).
